Results on one compound are retold here after US7355047B2, “Substituted quinolone carboxylic acids, their derivatives, site of action, and uses thereof” (The Regents of the University of California, priority 2002, dated 2008).

Assay [1] concerns GABAA receptor complex (GRC). Briefly: [35S]TBPS binding assay, rat cortex. To be noted: 2 nM [35S]TBPS.
For assay [2], the system named is GABAA receptor complex (GRC). Briefly: [35S]TBPS binding dissociation, mouse forebrain. Conditions: 2 nM [35S]TBPS.
The subject of the next assay is GABAA receptor. Briefly: [3H]Muscimol binding assay, rat cortex. Conditions: 5 nM [3H]muscimol, FIG. 7. The procedure:
[^3H]Muscimol binding assay: The cortex from male Sprague-Dawley rats (160-200 g) was removed immediately after euthanizing and dissected over ice. The tissue was homogenized in 15 vol of 0.32M sucrose followed by centrifugation for 10 min at 1000× g. The supernatant was transferred to a 38 mL polycarbonate tube (Beckman Instruments, Palo Alto Calif.) and centrifuged at 20,000× g for 20 min. The membrane pellet was resuspended in 10 vol of dH2O and centrifuged at 8,000× g for 20 min. The resulting pellet was washed with dH2O once and with Na^+-free assay buffer (40 mM KH2PO4, 100 mM KCl, pH 7.4). The pellet was resuspended in 35 mL of Na^+-free assay buffer, incubated at 37° C. for thirty minutes and then centrifuged 31,000× g for twenty minutes. The final pellet was resuspended in 10 vol of Na^+-free assay buffer. Protein concentration of membrane preparations was ˜1 mg/mL by BCA reagent protein assay. Aliquots of membrane suspension (100 μL) were incubated in Na^+-free assay buffer with 5 nM [^3H]muscimol (25 Ci/mmol, New England Nuclear, Boston, Mass.) and 5 μL of dimethylsulfoxide (DMSO) or drug dissolved in DMSO. The final volume of the incubation medium was 1 mL. […] Filter-bound radioactivity was quantified by LSC after an overnight extraction. The data were evaluated by nonlinear regression to obtain IC50 and EC50 values.

The subject of a further assay is 24 hour thirsted rats. Briefly: Vogel Model of Anxiety (Vogel Conflict). Format: in vivo, rat. To be noted: compared with Diazepam (DZP), FIG. 4. The procedure:
Adult male rats are randomly divided into groups of 6 rats/group. Animals were deprived of water overnight (24 hr). Food was freely available at time of thirsting. Thirty minutes after injection (i.p.) of test drug, positive control drug (diazepam, 1 mg/kg), or vehicle control rats are placed in a square Plexiglas box containing a stainless steel bottom connected to one side of a drinkometer circuit. At the other side of the drinkometer circuit a water bottle, placed so the drink tube extends into the Plexiglas box, is connected. When a subject drinks from the bottle the circuit is closed and an electric shock is delivered at the tube after seven licks are recorded. The number of licks in a 3 min session is recorded. Anti-anxiety agents will increase the number of shocks the animal is willing to endure to acquire water.

In another assay the test system is Male NSA mice. The assay can be described thus: Mouse Light-Dark Transition Model of Anxiety. It counts as in vivo. Conditions: compared with Diazepam (DZP), FIG. 3. Here is the method: Male NSA mice (25-30 g) are used. The apparatus consists of an open-topped box divided into small and large area by a partition that has a hole at floor level. The small compartment is painted black and the large compartment white. The white compartment was illuminated with light and the black compartment with red light. The time spent in the light versus dark compartments and the number of transitions between compartments is recorded during a 5 min test session. Vehicle or test compounds are administered 30 min prior to the test. Diazepam is administered (i.p.) at 2 mg/kg as the positive control. Anti-anxiety agents will reduce the time the animals will spend in the dark compartment and increase the number of transitions between the two compartments.

The mark [3] stands for this setting: absence or presence of 3 μM and 10 μM (+)-bicuculline, FIG. 5.

Turning to `CCn1cc(C(=O)O)c(=O)c2cc(NC3CCCc4ccccc43)c(Cl)cc21` (centres unmarked) [compound 3, 7-chloro-1-ethyl-6-(1,2,3,4-tetrahydronaphthyl-1-amino)-4-oxo-1,4-dihydroquinoline-3-carboxylic acid], in assay [1] (10 μM compound 3 or 100 nM 3α,5α-P, rat cortex, FIG. 8), the “interaction with 5α,20α-diol inhibition of [35S]TBPS binding (neurosteroid site)” value is “does not act directly on the neurosteroid site of the GRC”. In addition, in assay [1] (30 μM and 100 μM norfloxacin, rat cortex, FIG. 9), the “effect on [35S]TBPS binding in absence or presence of norfloxacin” value is “does not act directly at the same site as the antibacterial quinolone norfloxacin”. Further, the “effect on [35S]TBPS binding in absence or presence of Ro5-4864 (4′-chlorodiazepam)” value in assay [1] (0.3, 1 and 30 μM Ro5-4864, rat cortex, FIG. 11) is recorded as “does not act directly at the same site as 4′-chlorodiazepam”. Also, in assay [1] (setting [3]), the “dependence on GABA of the effect on [35S]TBPS binding” value is recorded as “absolute dependence of compound 3 on GABA for efficacy”; the “site of action relative to the [35S]TBPS site” value is “allosterically coupled to and does not act directly on the [^35S]TBPS site”. For the same compound, in assay [1] (initiated by 10 μM compound 3, 30 μM pentobarbital, rat cortex, FIG. 10), the “dissociation of [35S]TBPS binding in absence or presence of pentobarbital” value is “do not share a common site of action”. The “dissociation of [35S]TBPS binding in absence or presence of ivermectin” value in assay [2] (initiated by 10 μM compound 3, 10 μM ivermectin, FIG. 12) is “do not share a common site of action”. Besides, the “dissociation of [35S]TBPS binding in absence or presence of mefenamic acid” value in assay [2] (initiated by 10 μM compound 3, 10 μM mefenamic acid, FIG. 13) is “do not share a common site of action”. In addition, the “effect on [3H]muscimol binding to the GABAA receptor” value with GABAA receptor is “does not act directly on the GABAA receptor”. Besides, the “anti-anxiety effects, punished responding (number of licks during a 3 minute period)” value in the assay with 24 hour thirsted rats is “comparable to that of DZP”. Also, the “anti-anxiety effects, time spent in the dark” value in the assay on Male NSA mice is reported as “comparable to that of DZP”.
